Our source for the IC50 values is the Kinase Knowledgebase extract (Sharma et al. 2016).

The assay has as its target PIK3CG (human) (UniProt P48736). Nature of the assay: Assessment of PIK3CG Kinase Activity.

PIK3CG (human), sequence (P48736 whole entry, looked up): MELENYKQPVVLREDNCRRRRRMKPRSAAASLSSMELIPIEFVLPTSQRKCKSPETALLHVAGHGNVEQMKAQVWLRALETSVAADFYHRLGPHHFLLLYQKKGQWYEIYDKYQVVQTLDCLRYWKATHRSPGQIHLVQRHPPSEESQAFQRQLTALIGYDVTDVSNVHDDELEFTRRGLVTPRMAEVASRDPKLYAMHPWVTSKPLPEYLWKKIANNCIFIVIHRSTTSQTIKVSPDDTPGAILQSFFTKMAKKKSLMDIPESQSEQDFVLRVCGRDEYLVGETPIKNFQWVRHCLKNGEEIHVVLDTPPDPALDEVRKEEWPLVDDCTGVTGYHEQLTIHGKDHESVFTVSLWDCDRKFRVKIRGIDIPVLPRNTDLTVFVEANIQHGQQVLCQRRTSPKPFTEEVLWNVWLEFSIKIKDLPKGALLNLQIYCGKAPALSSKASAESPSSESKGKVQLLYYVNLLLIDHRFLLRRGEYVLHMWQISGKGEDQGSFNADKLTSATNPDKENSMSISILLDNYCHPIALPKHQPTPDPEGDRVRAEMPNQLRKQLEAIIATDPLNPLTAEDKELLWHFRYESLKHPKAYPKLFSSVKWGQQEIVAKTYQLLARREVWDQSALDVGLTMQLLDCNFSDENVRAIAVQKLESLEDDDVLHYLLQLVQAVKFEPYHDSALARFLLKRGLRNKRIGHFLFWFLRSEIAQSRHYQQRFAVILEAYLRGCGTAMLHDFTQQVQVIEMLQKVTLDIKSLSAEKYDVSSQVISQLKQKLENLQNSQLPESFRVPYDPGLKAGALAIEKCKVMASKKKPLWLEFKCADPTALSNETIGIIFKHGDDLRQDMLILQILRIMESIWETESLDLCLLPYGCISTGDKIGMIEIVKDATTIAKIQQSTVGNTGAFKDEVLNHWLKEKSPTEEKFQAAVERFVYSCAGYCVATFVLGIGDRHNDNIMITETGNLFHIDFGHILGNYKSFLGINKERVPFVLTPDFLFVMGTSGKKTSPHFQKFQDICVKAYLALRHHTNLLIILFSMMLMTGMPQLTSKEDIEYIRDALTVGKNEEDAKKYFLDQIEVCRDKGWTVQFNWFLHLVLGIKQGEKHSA

As usually defined, the IC50 is the concentration needed to halve the response being measured. Read a high IC50 as a need for much substance. As to `CCc1ccccc1-n1ncc2c1-c1sc(NC(C)=O)nc1C2`, the concentration for half-maximal inhibition (IC50) was under 800 nM.
`CN(C)c1ncc2c(n1)-c1sc(N)nc1CC2` showed an IC50 of under 800 nM.
For `CC(=O)Nc1nc2c(s1)-c1c(cnn1-c1ccc(CC(=O)NCc3cccc(C(N)=O)c3)cc1)CC2`, the IC50 was under 800 nM.
Consider `CC(=O)Nc1nc2c(s1)-c1c(cnn1-c1ccc(C(=O)N[C@@H](C(N)=O)[C@H](C)O)cc1Cl)CC2`, for which the IC50 is under 800 nM.
`CC(=O)Nc1nc2c(s1)-c1c(cnn1-c1ccc(C(=O)N[C@H]3CC[C@H](N4CCOCC4)CC3)cc1)CC2` returned an IC50 of under 800 nM.
In the case of `O=CNc1nc2c(s1)-c1nc(-c3ccccc3)ncc1CC2` it was under 800 nM; in that of `CC(=O)Nc1nc2c(s1)-c1cc([N+](=O)[O-])ccc1CC2`, under 800 nM.
For the molecule `COCc1nn(-c2ccc(C(=O)NCc3ccncc3)cc2Cl)c2c1CCc1nc(NC(C)=O)sc1-2`, the IC50 was under 800 nM.
Next, `CC(=O)Nc1nc2c(s1)-c1c(c([C@H]3CCCO3)nn1-c1ccccc1Cl)CC2`: under 800 nM.
As for `CC(=O)Nc1nc2c(s1)-c1c(cnn1-c1ccc(C)cc1)C2`, the IC50 is under 800 nM.
In turn, `CC(=O)Nc1nc2c(s1)-c1c(c(-c3ccco3)nn1-c1cccc(Cl)c1)CC2` displayed an IC50 of under 800 nM.
In turn, `CC=Cn1ncc2c1-c1sc(NC(C)=O)nc1CC2` displayed an IC50 of under 800 nM.
Take `CC(=O)Nc1nc2c(s1)-c1nc(-c3ccccc3)ncc1C2`: the IC50 is under 800 nM.
The molecule `CC(=O)Nc1nc2c(s1)-c1c(cnn1-c1ccc(C(=O)O)cc1Cl)CC2` returned an IC50 of under 800 nM.
In turn, `CC(=O)Nc1nc2c(s1)-c1c(cnn1-c1ccc(CC(=O)N(C)CC(C)O)cc1)CC2` (stereo not drawn) registered an IC50 of under 800 nM.
In the case of `CC(=O)Nc1nc2c(s1)-c1c(c(-c3ccccn3)nn1-c1ccccc1)CC2`, the IC50 was under 800 nM.
On to `CC(=O)Nc1nc2c(s1)-c1c(c(C)nn1-c1ccc(Cl)cc1)CC2`, for which the IC50 was under 800 nM.
As to `CC(=O)Nc1nc2c(s1)-c1c(cnn1-c1ccc(C(=O)N3CCC(O)CC3)cc1)CC2`, the IC50 is under 800 nM.
Take `CC(=O)Nc1nc2c(s1)-c1c(cnn1-c1ccc(C(=O)NCc3nc4ccccc4n3C)cc1)CC2`: the IC50 was under 800 nM.
In turn, `CC(=O)Nc1nc2c(s1)-c1nc(N3CCOCC3)ncc1CC2` had an IC50 of under 800 nM.
Take `CC(=O)Nc1nc2c(s1)-c1c(cnn1-c1ccc3ccccc3c1)CC2`: the IC50 was under 800 nM.
`CC(=O)Nc1nc2c(s1)-c1c(c(-c3c[nH]cn3)nn1-c1ccccc1C(F)(F)F)CC2` returned an IC50 of under 800 nM.
For `CC(=O)Nc1nc2c(s1)-c1nc(-n3cccn3)ncc1CC2`, the IC50 is under 800 nM.
Molecule `CC(=O)Nc1nc2c(s1)-c1c(c(-c3ccco3)nn1-c1ccc(C(=O)N[C@H]3CC[C@H](N4CCCC4)CC3)cc1Cl)CC2` had an IC50 of under 800 nM.
Molecule `CN(C)CCNC(=O)Nc1nc2c(s1)-c1c(cnn1-c1ccccc1)CC2` had an IC50 of under 800 nM.
In turn, `COC(=O)c1nn(-c2ccccc2F)c2c1CCc1nc(NC(C)=O)sc1-2` gave an IC50 of under 800 nM.
In the case of `CCCC(=O)n1cc2c(n1)-c1sc(NC(C)=O)nc1CC2` it was under 800 nM.
Turning to `CC(=O)Nc1nc2c(s1)-c1c(cnn1-c1ccc(Br)cc1)CC2`, the IC50 is under 800 nM.
Next, `CN(C)CCN(C)C(=O)Nc1nc2c(s1)-c1c(cnn1-c1ccccc1Cl)C2`: under 800 nM; `CC(=O)Nc1nc2c(s1)-c1c(cnn1-c1ccc(S(C)(=O)=O)cc1)C2`: under 800 nM; `CC(=O)Nc1nc2c(s1)-c1c(cnn1-c1ccc(CC(=O)N3CCN(c4ccncc4)CC3)cc1)CC2`: under 800 nM.
As for `CC(=O)Nc1nc2c(s1)-c1c(cnn1-c1ccc(C(=O)N[C@H]3CC[C@@H](N4CCCCC4)CC3)cc1)CC2`, the IC50 was under 800 nM.
With `CC(=O)Nc1nc2c(s1)-c1c(c(-c3cn(C)cn3)nn1-c1ccccc1Cl)CC2`, the half-inhibitory concentration (IC50) was under 800 nM.
Next, `CC(=O)Nc1nc2c(s1)-c1c(cnn1-c1ccc(C(=O)NCc3ccnn3C)cc1)CC2`: under 800 nM.
In the case of `CC(=O)Nc1nc2c(s1)-c1c(cnn1-c1cccc([N+](=O)[O-])c1)CC2`, the IC50 was under 800 nM.
In turn, `CC(=O)Nc1nc2c(s1)-c1nc(N(C)CCN(C)C)ncc1CC2` returned an IC50 of under 800 nM.
Take `C#CCNc1ncc2c(n1)-c1sc(NC(C)=O)nc1CC2`: the IC50 was under 800 nM.
Molecule `CC(=O)Nc1nc2c(s1)-c1c(cnn1-c1ccc(C(=O)NCCn3ccnc3)cc1)CC2` displayed an IC50 of under 800 nM.
In the case of `CC(=O)Nc1nc2c(s1)-c1nc(-c3cccc(C)c3)ncc1CC2` it was under 800 nM.
In the case of `CC(=O)Nc1nc2c(s1)-c1c(cnn1-c1ccc(C(=O)N3CCN(C)CC3)cc1)CC2` it was under 800 nM; in that of `CC(=O)Nc1nc2c(s1)-c1c(cnn1-c1ccccc1)CC2`, under 800 nM; in that of `CC(=O)Nc1nc2c(s1)-c1c(cnn1-c1ccc(C(=O)Nc3ccc(N4CCN(C)CC4)cc3)cc1Cl)CC2`, under 800 nM.
`CC(=O)Nc1nc2c(s1)-c1nc(-c3ccccn3)ncc1CC2` gave an IC50 of under 800 nM.
`COc1ccccc1-n1nc(-c2ccccc2)c2c1-c1sc(NC(C)=O)nc1CC2`: the IC50 is under 800 nM.
Molecule `CC(=O)Nc1nc2c(s1)-c1c(cnn1-c1ccc(C(=O)N3CCC[C@H]3C(N)=O)cc1)CC2` registered an IC50 of under 800 nM.
In the case of `CC(=O)Nc1nc2c(s1)-c1c(cnn1-c1ccc(C(=O)N[C@H](CC(=O)O)C(N)=O)cc1Cl)CC2` it was under 800 nM.
`CNC(=O)Nc1nn(-c2ccccc2Cl)c2c1CCc1nc(NC(C)=O)sc1-2` returned an IC50 of under 800 nM.
In turn, `CC(=O)Nc1nc2c(s1)-c1nc(N3CCOCC3)ncc1C2` had an IC50 of under 800 nM.
Take `CC(=O)Nc1nc2c(s1)-c1nc(SCCCN(C)C)ncc1CC2`: the IC50 was under 800 nM.
In the case of `CC(=O)Nc1nc2c(s1)-c1c(cnn1-c1ccc(C(=O)NCC3CC3)cc1)CC2` it was under 800 nM.
In the case of `CC(=O)Nc1nc2c(s1)-c1c(cnn1-c1ccc(CC(=O)N3CCNC(=O)C3)cc1)CC2` it was under 800 nM; in that of `CC(=O)Nc1nc2c(s1)-c1c(cnn1-c1ccc(C(=O)N3CCc4ccccc4C3)cc1)CC2`, under 800 nM.
`CC(=O)Nc1nc2c(s1)-c1c(c(C(=O)N(C)C)nn1-c1ccccc1Cl)CC2`: the IC50 is under 800 nM.
As for `CC(=O)Nc1nc2c(s1)-c1nc(-c3ccc(C)cc3)ncc1CC2`, the IC50 is under 800 nM.
Regarding `Cc1ccccc1-c1ncc2c(n1)-c1sc(NC(N)=O)nc1CC2`, the IC50 is under 800 nM.
Next, `C#CCN(C)C(=O)c1ccc(-n2ncc3c2-c2sc(NC(C)=O)nc2CC3)cc1`: under 800 nM.
Consider `CCN1CCCC(NC(=O)Cc2ccc(-n3ncc4c3-c3sc(NC(C)=O)nc3CC4)cc2)C1` (stereo not drawn), for which the IC50 was under 800 nM.
`COCc1nn(-c2ccc(C(=O)N[C@H]3CC[C@@H](N4CCCC4)CC3)cc2Cl)c2c1CCc1nc(NC(C)=O)sc1-2` gave an IC50 of under 800 nM.
Next, `CC(=O)Nc1nc2c(s1)-c1c(cnn1-c1ccc(C(=O)Nc3ccc(NC(C)(C)CN(C)C)cc3)cc1)CC2`: under 800 nM; `O=C(Nc1nc2c(s1)-c1nc(-c3ccccc3)ncc1CC2)N1CCCCC1`: under 800 nM; `CC(=O)Nc1nc2c(s1)-c1c(c(C(C)C)nn1-c1ccccc1)CC2`: under 800 nM.
On to `CC(=O)Nc1nc2c(s1)-c1c(cnn1-c1ccc(C(=O)NCCCN(C)C)cc1)CC2`, for which the IC50 is under 800 nM.
Next, `CNc1ncc2c(n1)-c1sc(NC(C)=O)nc1CC2`: under 800 nM.
Next, `CC(=O)Nc1nc2c(s1)-c1nc(-c3ccccc3Cl)ncc1C2`: under 800 nM; `CC(=O)Nc1nc2c(s1)-c1c(cnn1-c1ccc(C(C)(C)C)cc1)CC2`: under 800 nM.
In turn, `CC(=O)Nc1nc2c(s1)-c1nn(-c3ccccc3Br)c(-c3ccco3)c1CC2` gave an IC50 of under 800 nM.
In the case of `CC(=O)Nc1nc2c(s1)-c1c(cnn1-c1ccc(C(=O)N(C)Cc3cnn(C)c3)cc1)CC2` it was under 800 nM; in that of `COC(=O)Nc1nn(-c2ccccc2Cl)c2c1CCc1nc(NC(C)=O)sc1-2`, under 800 nM.
In the case of `CC(=O)Nc1nc2c(s1)-c1c(cnn1-c1ccc(CC(=O)NCC#Cc3ccncc3)cc1)CC2` it was under 800 nM.
In the case of `CC(=O)Nc1nc2c(s1)-c1c(c(-c3ccco3)nn1-c1ccccc1Br)CC2`, the IC50 is under 800 nM.
Molecule `CC(=O)Nc1nc2c(s1)-c1cc(NC(C)C)ccc1CC2` yielded a 50% inhibitory concentration (IC50) of under 800 nM.
The molecule `CC(=O)Nc1nc2c(s1)-c1c(c(C(C)C)nn1-c1ccc(C(=O)N[C@H]3CC[C@H](N4CCCC4)CC3)cc1Cl)CC2` displayed an IC50 of under 800 nM.
Molecule `C#CCN(C(=O)OC(C)(C)C)c1ncc2c(n1)-c1sc(NC(C)=O)nc1CC2` registered an IC50 of under 800 nM.
In the case of `CC(=O)Nc1nc2c(s1)-c1c(c(C(C)C)nn1-c1ccccc1Cl)CC2` it was under 800 nM.
Molecule `CC(=O)Nc1nc2c(s1)-c1c(c(C(C)C)nn1-c1ccc(C(=O)N(C)C3CCN(C)CC3)cc1Cl)CC2` had an IC50 of under 800 nM.
Regarding `CC(=O)Nc1nc2c(s1)-c1c(cnn1C(=O)c1ccccc1)CC2`, the IC50 was under 800 nM.
Molecule `CC[C@H](NC(=O)c1ccc(-n2ncc3c2-c2sc(NC(C)=O)nc2CC3)c(Cl)c1)C(N)=O` had an IC50 of under 800 nM.
`CC(=O)Nc1nc2c(s1)-c1c(cnn1-c1ccc(C(=O)N[C@@H](Cc3ccccc3)C(N)=O)cc1Cl)CC2` displayed an IC50 of under 800 nM.
As for `CCS(=O)(=O)c1ncc2c(n1)-c1sc(NC(C)=O)nc1CC2`, the IC50 was under 800 nM.
`CC(=O)Nc1nc2c(s1)-c1c(cnn1C1CCN(C(=O)C(F)(F)F)CC1)CC2`: the IC50 was under 800 nM.
For the molecule `CC(=O)Nc1nc2c(s1)-c1c(cnn1-c1cc(C)ccc1C)CC2`, the IC50 was under 800 nM.
In turn, `CC(=O)Nc1nc2c(s1)-c1nc(-c3cccc(Cl)c3)ncc1CC2` displayed an IC50 of under 800 nM.
`CC(=O)Nc1nc2c(s1)-c1c(cnn1-c1ccc(OC(F)(F)F)cc1)CC2`: the IC50 was under 800 nM.
As to `CC(=O)Nc1nc2c(s1)-c1c(cnn1-c1ccc(C(=O)N[C@@H]3CCc4nc(N)sc4C3)cc1)CC2`, the IC50 is under 800 nM.
In turn, `CC(=O)Nc1nc2c(s1)-c1c(cnn1-c1cccc3ccccc13)CC2` came in with an IC50 of under 800 nM.
For the molecule `CC(=O)Nc1nc2c(s1)-c1c(cnn1-c1ccc(C(=O)N[C@H](C(N)=O)c3ccccc3)cc1Cl)CC2`, the IC50 was under 800 nM.
For `CC(=O)Nc1nc2c(s1)-c1c(cnn1-c1ccc(CC(=O)N3CCC(O)CC3)cc1)CC2`, the IC50 is under 800 nM.
In turn, `CC(=O)Nc1nc2c(s1)-c1c(cnn1-c1ccc(C(=O)NCc3ncc[nH]3)cc1)CC2` had an IC50 of under 800 nM.
